Reference: article PMC8344021, “Discovery of Small Molecule Bak Activator for Lung Cancer Therapy” (Theranostics, 2021)

Target: T1, BH3 deletion human Bak mutant protein (ΔBH3) (Homo sapiens, UniProt Q16611, DEL74-90)
T1 construct: His6; made in house; host or cells: Escherichia coli BL21 DE3
Assay: Isothermal titration calorimetry (ITC), BH3 deletion mutant
Assay type: binding
Experimental: The binding affinity of BKA-073 with Bak protein was examined by isothermal titration calorimetry (ITC) assay as described, [28]. ITC assay was carried out in the auto-iTC200 instrument (MicroCal, GE) at 25 °C. Purified recombinant human or mouse Bak protein was loaded into a 96 Deepwell PP plate. BKA-073 compound was then titrated stepwise into the protein for a total of 16 injections. Reference power and initial delay were set as 5 µCal/sec and 60s, respectively. A string speed of 750 rpm was used for the ITC measurements. The binding constant (Kd) value was determined by fitting the titration curve to a one-site binding mode, using the Origin software provided by the manufacturer.
To confirm the binding of BKA-073 with Bak, we first conducted a competitive fluorescence polarization (FP) assay using purified human Bak protein, fluorescent Bak BH3 domain peptide, and BKA-073 as described, [37]-[40]. […] There are multiple amino acid differences in the BH3 domains between Bak and other Bcl2 family members, which helps to explain why BKA-073 only binds to Bak but not to other Bcl2 family members (i.e. Bax, Bcl2, Bcl-XL, Bcl-w and Mcl-1). In addition to the FP assay, isothermal titration calorimetry (ITC) was also employed to measure Bak/BKA-073 binding. […] In addition to human Bak/BKA-073 binding, we measured mouse Bak/BKA-073 binding using ITC. […]

T1 sequence (Q16611 with tags, fused parts or gaps DEL74-90 limits assumed): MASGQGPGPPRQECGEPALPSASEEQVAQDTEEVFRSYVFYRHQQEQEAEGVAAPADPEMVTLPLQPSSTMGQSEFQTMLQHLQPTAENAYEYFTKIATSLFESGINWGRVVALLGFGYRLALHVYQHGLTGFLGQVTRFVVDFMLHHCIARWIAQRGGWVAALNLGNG

COc1ccc2nc3ccccc3c(NCCNCC(C)O)c2c1 (stereo not shown) [BKA-073]
binding to ΔBH3 Bak mutant: failed to bind
